Data from PMC13213488, “Small Molecule Activators of Protein Phosphatase 2A Exert Global Stabilizing Effects on the Scaffold PR65” (JACS Au, 2026).

Target: T1, PR65 (Homo sapiens, UniProt P30153)
T1 construct: gene PPP2R1A; WT PR65 alone (scaffold, 15 HEAT repeats, no B or C subunit), expressed in E. coli C41 as GST fusion, GST tag cleaved with thrombin; also a variant with ybbR tags at N- and C-termini used for optical tweezers
Assay: nanoDSF thermal shift
Type: binding
Settings: melting temperature with ligand, not a shift (apo 52.7 ± 0.1 °C); 2 μM PR65, 100 μM ligand, PBS, 2 mM DTT, 10% DMSO

T1 sequence (P30153 2-589): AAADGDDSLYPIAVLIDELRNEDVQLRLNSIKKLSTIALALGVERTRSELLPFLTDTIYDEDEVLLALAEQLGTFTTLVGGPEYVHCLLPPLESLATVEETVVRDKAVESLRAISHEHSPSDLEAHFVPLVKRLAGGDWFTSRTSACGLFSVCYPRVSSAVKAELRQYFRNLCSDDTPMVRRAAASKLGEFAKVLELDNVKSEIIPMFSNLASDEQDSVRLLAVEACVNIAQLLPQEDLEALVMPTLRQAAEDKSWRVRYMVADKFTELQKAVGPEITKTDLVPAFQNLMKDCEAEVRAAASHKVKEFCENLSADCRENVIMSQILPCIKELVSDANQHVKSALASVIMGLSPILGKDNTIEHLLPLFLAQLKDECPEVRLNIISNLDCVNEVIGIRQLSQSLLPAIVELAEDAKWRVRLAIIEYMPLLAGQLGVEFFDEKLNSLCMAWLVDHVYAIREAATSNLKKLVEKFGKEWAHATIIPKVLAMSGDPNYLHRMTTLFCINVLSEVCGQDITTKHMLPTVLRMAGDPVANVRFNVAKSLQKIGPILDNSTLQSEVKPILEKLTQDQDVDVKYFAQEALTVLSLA

T m: 53.5 ± 0.1 °C
Substance: DBK-766
